ChEMBL document CHEMBL1145591, “Synthesis of new UV-B light absorbents: (Acetylphenyl)glycosides with antioxidant activities” (Bioorg Med Chem Lett, 2008)

Assay: Antioxidant activity after 1 hr by cytochrome-c reduction assay
Assay type: functional
Set-up: scale not given: the % may be the effect or the level left

Row | SMILES | Activity [%]
1 | CC(=O)c1cccc(O[C@@H]2O[C@H](CO)[C@@H](O)[C@H](O)[C@@H]2O)c1 | 71.5
2 | CC(=O)c1cccc(O[C@H]2O[C@H](CO)[C@@H](O)[C@H](O)[C@@H]2O)c1 | 66.9
3 | CC(=O)c1cccc(O[C@@H]2O[C@H](CO)[C@@H](O)[C@H](O)[C@H]2O)c1 | 51.7
4 | CC(=O)c1cccc(O)c1 | 0
